Reference: patent US4977161A, “Isoxazolopyridine type mevalonolactones” (Nissan Chemical Industries, Ltd., priority 1988, dated 1990)

How the values were obtained:
[1] = test system: cholesterol biosynthesis in Hep G2 cells; assay: Test B-1: Inhibition of cholesterol biosynthesis in culture cells (Hep G2); format: cell-based; conditions: Homo sapiens, HepG2, 100×10^-9 M/l, [2-14C]sodium acetate added at 0 hr, read-out: Inhibition activities by Test B-1
Procedure: Hep G2 cells at over 5th passage were seeded to 12 well plates and incubated with Dulbecco's modified Eagle (DME) medium containing 10% of fetal bovine serum (FBS) at 37° C., 5% CO2 until cells were confluent for about 7 days. Cells were exposed to the DME medium containing 5% of lipoprotein deficient serum (LpDS) prepared by ultracentrifugation method for over 24 hours. Medium was changed to 0.5 ml of fresh 5% LpDS containing DME before assay and 10 μl of test compound solution dissolved in water or DMSO were added. 0.2 μCi of [2-^14 C]sodium acetate (20 μl) was added at 0 hr(B-1) or 4 hrs(B-2) after addition of compounds. After 4 hrs further incubation with [2-^14 C] sodium acetate, medium was removed and cells were washed with phosphate buffered saline (PBS) chilled at 4° C. Cells were scraped with rubber policeman and collected to tubes with PBS and digested with 0.2 ml of 0.5 N KOH at 37° C. Aliquot of digestion was used for protein analysis and remaining was saponified with 1 ml of 15% EtOH-KOH at 75° C. for 1 hour. Nonsaponifiable lipids were extracted with petroleum ether and ^14 C radioactivity was counted. Counts were revised by cell protein and indicated with DPM/mg protein. Inhibitory activity of compounds was indicated with IC50.
With respect to the compounds of the present invention, the inhibitory activities against the cholesterol biosynthesis in which HMG-CoA reductase serves as a rate limiting enzyme, were measured by the above Test A and B. The results are shown in Tables 2 and 3.
In Table 3, the inhibition activities of the test compounds at a concentration of 100×10^-9 M/l, are shown.

ICR male mice = assay: Test D: Acute toxicity; format: in vivo; conditions: oral, 0.5% CMC suspension, group of three mice; dose not given
Procedure: A 0.5% CMC suspension of a test compound was orally administered to ICR male mice (group of three mice). The acute toxicity was determined based on the mortality after seven days.

cholesterol biosynthesis = assay: Test C: Inhibition of cholesterol biosynthesis in vivo; set-up: species or system male Sprague-Dawley rats; conditions: oral, 0.2 mg/kg
Procedure: Male Sprague-Dawley rats weighing about 150 g were fed normal Purina chow diet and water ad libitum, and exposed to 12 hours light/12 hours dark lighting pattern
(2:00 PM -2:00 AM dark) prior to use for in vivo inhibition test of cholesterol biosynthesis. Animals were separated groups consisting of five rats as to be average mean body weight in each groups. Test compounds at dosage of 0.02-2.0 mg/kg body weight (0.4 ml/100 g body weight), were dissolved in water or suspended in 0.5% methyl cellulose and orally administered at 2-3 hours before mid-dark (8:00 PM), while cholesterol biosynthesis reaches to maximum in rats. As control, rats were orally administered only water or vehicle. At 90 minutes after sample administration, rats were injected intraperitoneally with 10 μCi of [2-^14 C]sodium acetate at volume of 0.2 ml per one. 2 Hours later, blood samples were obtained and serum were separated immediately. Total lipids were extracted according to the method of Folch et al. and saponified with EtOH-KOH. Nonsaponifiable lipids were extracted with petroleum ether and radio activity incorporated into nonsaponifiable lipids was counted.
Inhibitory activity was indicated as percent decrease of counts in testing groups (DPM/2 ml serum/2 hours) from that in control group.

[2] = test system: cholesterol biosynthesis in which HMG-CoA reductase serves as a rate limiting enzyme; assay: Test A: Inhibition of cholesterol biosynthesis from acetate in vitro; format: biochemical, male Wistar rat; conditions: for Relative activities by Test A: based on the activities of CS-514 by Test A being evaluated to be 1
Procedure: Enzyme solution was prepared from liver of male Wistar rat billialy connulated and discharged bile for over 24 hours. Liver was cut out at mid-dark and microsome and supernatant fraction which was precipitable with 40-80% of solution of ammonium sulfate (sup fraction) were prepared from liver homogenate according to the modified method of Knauss et. al.; Kuroda, M., et. al., Biochim. Biophys. Acta, 489, 119 (1977). For assay of cholesterol biosynthesis, microsome (0.1 mg protein) and sup fraction (1.0 mg protein) were incubated for 2 hours at 37° C. in 200 μl of the reaction mixture containing ATP; 1 mM, Glutathione; 6 mM, Glucose-1phosphate; 10 mM, […]; 0.25 mM, NADP; 0.25 mM, CoA; 0.04 mM and 0.2 mM [2-14C]sodium acetate (0.2 μCi) with 4 μl of test compound solution dissolved in water or dimethyl sulfoxide. To stop reaction and saponify, 1 ml of 15% EtOH-KOH was added to the reactions and heated at 75° C. for 1 hour. Nonsaponifiable lipids were extracted with petroleum ether and incorporated ^14 C radioactivity was counted. Inhibitory activity of compounds was indicated with IC50.

SMILES	inhibition at 0.1 µM [1] [%]	acute toxicity, mortality after seven days (ICR male mice)	percent decrease of counts relative to the control group (DPM/2 ml serum/2 hours) (cholesterol biosynthesis) [%]	Relative activities by Test A [2]	IC50 ([2]; rat liver microsome and sup fraction, [2-14C]sodium acetate, 2 hours at 37° C.) [nM]
CC(C)c1nc2onc(-c3ccccc3)c2c(-c2ccc(F)cc2)c1/C=C/C(O)CC(O)CC(=O)O (stereo not drawn) [Compound I-5-2]	43.2	only one animal of the three animals died	34.3	0.6	–
Cc1noc2nc(C(C)C)c(/C=C/C(O)CC(O)CC(=O)O)c(-c3ccc(F)cc3)c12 (stereo not drawn) [Compound I-5-1, Sodium (E)-7-[4'-(4"-fluorophenyl)-3'-methyl-6'-(1"-methylethyl)isoxazolo[5,4-b]pyridin-5'-yl]-3,5-dihydroxyhept-6-enoate]	–	–	–	1.3	–
CCOC(=O)CC(=O)CC(O)/C=C/c1c(C(C)C)nc2onc(C)c2c1-c1ccc(F)cc1 (stereo not drawn) [Compound II-1, Ethyl (E)-7-[4'-(4"-fluorophenyl)-3'-methyl-6'-(1"-methylethyl)isoxazolo[-5,4-b]pyridin-5-yl]-5'-hydroxy-3-oxohepto-6-enoate]	52.6	–	–	–	–
CCOC(=O)CC(O)CC(O)/C=C/c1c(C(C)C)nc2onc(C)c2c1-c1ccc(F)cc1 (stereo not drawn) [Compound I-1-1]	50.1	–	–	1.6	–
CCOC(=O)CC(O)CC(O)/C=C/c1c(C(C)C)nc2onc(-c3ccccc3)c2c1-c1ccc(F)cc1 (stereo not drawn) [Compound I-1-2]	57.3	–	–	–	–
CC[C@H](C)C(=O)O[C@H]1C[C@H](O)C=C2C=C[C@H](C)[C@H](CC[C@@H](O)C[C@@H](O)CC(=O)O)[C@H]21 [CS-514, reference compound]	18.4	–	34	–	9
